Assay results from ChEMBL document CHEMBL3734659, “Identification of tris-(phenylalkyl)amines as new selective h5-HT2Breceptor antagonists” (Medchemcomm, 2015).
The source made the active and inactive calls. The rule behind the calls is not given here.

Tests used:
[1] = biological target: Beta-1 adrenergic receptor (Homo sapiens, UniProt P08588); assay: Displacement of [3H]CGP12177 human recombinant beta 1 adrenergic recptor expressed in CHO Flp-In cells after 90 mins by scintillation counting method; assay type: cell-based
Sequence of Beta-1 adrenergic receptor (P08588 whole entry): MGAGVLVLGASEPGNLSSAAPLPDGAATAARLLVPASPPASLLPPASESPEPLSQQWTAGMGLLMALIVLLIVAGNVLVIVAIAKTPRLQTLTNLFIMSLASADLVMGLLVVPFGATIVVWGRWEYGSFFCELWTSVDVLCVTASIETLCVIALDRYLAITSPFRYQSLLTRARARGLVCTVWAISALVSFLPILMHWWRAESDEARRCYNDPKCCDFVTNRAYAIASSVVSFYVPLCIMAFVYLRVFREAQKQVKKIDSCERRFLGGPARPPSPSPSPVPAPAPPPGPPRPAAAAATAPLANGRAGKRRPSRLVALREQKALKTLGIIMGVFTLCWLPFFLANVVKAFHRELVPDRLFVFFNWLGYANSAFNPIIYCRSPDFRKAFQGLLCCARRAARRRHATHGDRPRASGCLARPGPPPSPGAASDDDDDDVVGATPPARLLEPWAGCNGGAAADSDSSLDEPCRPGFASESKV

[2] = biological target: Alpha-2B adrenergic receptor (Homo sapiens, UniProt P18089); assay: Displacement of [3H]Rauwolscine from human recombinant alpha 2B receptor expressed in HEKT cells after 90 mins by scintillation counting method; assay type: cell-based
[3] = biological target: Alpha-2A adrenergic receptor (Homo sapiens, UniProt P08913); assay: Displacement of [3H]Rauwolscine from human recombinant alpha 2A receptor stably expressed in MDCK cells after 90 mins by scintillation counting method; assay type: cell-based
[4] = biological target: Alpha-1A adrenergic receptor (Homo sapiens, UniProt P35348); assay: Displacement of [3H]Prazosin from human recombinant alpha 1A receptor after 90 mins by scintillation counting method
Sequence of Alpha-1A adrenergic receptor (P35348 whole entry): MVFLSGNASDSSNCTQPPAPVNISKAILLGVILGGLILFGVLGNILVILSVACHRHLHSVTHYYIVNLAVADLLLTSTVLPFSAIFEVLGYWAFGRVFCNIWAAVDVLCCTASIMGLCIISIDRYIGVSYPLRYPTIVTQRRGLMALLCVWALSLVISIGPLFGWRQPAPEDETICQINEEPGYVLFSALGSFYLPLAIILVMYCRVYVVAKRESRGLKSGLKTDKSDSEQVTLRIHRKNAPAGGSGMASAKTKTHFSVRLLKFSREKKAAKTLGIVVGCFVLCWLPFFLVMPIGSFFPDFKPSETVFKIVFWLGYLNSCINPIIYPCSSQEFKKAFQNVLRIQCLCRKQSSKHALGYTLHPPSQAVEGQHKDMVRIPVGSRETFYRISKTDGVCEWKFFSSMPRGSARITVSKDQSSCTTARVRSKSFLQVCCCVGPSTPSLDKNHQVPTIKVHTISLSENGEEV

[5] = biological target: T1, 5-hydroxytryptamine receptor 2A (Homo sapiens, UniProt P28223); assay: Displacement of [3H]ketanserin from human recombinant 5-HT2A receptor expressed in HEKT cell membrane after 90 mins by scintillation counting method; assay type: cell-based
T1 sequence (P28223 whole entry): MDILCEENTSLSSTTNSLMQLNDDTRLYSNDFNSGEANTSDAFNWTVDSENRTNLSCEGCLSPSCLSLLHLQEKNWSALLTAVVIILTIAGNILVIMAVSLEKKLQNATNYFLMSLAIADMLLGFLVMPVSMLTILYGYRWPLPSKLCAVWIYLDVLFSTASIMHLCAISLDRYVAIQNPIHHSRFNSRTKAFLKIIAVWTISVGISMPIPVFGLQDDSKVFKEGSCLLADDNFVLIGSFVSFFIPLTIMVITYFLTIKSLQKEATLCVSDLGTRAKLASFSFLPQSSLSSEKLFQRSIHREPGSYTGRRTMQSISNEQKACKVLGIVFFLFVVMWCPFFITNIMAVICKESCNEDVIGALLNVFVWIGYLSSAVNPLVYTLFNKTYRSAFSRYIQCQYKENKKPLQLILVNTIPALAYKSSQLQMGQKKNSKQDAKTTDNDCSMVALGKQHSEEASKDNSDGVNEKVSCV

[6] = biological target: T2, 5-hydroxytryptamine receptor 2B (Homo sapiens, UniProt P41595); assay: Displacement of [3H]LSD from human recombinant 5-HT2B receptor stably expressed in HEK cell membrane after 90 mins by scintillation counting method; assay type: cell membranes, HEK293
T2 sequence (P41595 whole entry): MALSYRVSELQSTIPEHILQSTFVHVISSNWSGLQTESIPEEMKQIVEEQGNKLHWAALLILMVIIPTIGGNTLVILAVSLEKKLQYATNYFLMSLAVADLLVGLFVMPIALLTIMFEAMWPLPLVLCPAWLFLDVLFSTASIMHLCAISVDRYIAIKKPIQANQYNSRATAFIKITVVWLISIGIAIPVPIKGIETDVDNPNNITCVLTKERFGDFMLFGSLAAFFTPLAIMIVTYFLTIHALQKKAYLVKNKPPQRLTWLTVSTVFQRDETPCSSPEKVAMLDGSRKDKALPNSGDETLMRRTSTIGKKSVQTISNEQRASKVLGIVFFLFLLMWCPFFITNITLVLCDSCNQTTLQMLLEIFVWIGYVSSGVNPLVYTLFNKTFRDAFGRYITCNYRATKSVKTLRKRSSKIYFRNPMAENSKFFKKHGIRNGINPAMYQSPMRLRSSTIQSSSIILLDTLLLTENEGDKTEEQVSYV

[7] = biological target: T3, 5-hydroxytryptamine receptor 2C (Homo sapiens, UniProt P28335); assay: Displacement of [3H]mesulergine from human recombinant 5-HT2C receptor expressed in Flp-IN HEK cell membrane after 90 mins by scintillation counting method; assay type: cell membranes, HEK293; details: read-out: Ki
T3 sequence (P28335 whole entry): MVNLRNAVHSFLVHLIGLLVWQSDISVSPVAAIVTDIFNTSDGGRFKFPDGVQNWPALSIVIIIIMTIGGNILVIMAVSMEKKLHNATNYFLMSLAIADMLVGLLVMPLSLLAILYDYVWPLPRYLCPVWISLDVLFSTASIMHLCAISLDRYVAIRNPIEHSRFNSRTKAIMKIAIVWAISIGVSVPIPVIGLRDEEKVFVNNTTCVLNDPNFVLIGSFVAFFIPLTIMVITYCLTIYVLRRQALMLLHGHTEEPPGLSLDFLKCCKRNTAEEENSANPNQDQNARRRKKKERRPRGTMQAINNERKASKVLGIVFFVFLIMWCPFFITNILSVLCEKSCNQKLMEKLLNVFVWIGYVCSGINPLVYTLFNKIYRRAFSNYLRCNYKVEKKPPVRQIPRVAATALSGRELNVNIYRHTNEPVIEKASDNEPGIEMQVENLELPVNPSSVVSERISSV

HEK293 = assay: Selectivity ratio of Ki for human recombinant 5-HT2C receptor to Ki for human recombinant 5-HT2B receptor stably expressed in HEK cell membrane; assay type: cell-based
D(1A) dopamine receptor = D(1A) dopamine receptor (Homo sapiens, UniProt P21728); assay: Displacement of [3H]SCH23390 from human recombinant dopamine D1 receptor expressed in HEKT cell membrane after 90 mins by scintillation counting method; assay type: cell membranes
Sequence of D(1A) dopamine receptor (P21728 whole entry): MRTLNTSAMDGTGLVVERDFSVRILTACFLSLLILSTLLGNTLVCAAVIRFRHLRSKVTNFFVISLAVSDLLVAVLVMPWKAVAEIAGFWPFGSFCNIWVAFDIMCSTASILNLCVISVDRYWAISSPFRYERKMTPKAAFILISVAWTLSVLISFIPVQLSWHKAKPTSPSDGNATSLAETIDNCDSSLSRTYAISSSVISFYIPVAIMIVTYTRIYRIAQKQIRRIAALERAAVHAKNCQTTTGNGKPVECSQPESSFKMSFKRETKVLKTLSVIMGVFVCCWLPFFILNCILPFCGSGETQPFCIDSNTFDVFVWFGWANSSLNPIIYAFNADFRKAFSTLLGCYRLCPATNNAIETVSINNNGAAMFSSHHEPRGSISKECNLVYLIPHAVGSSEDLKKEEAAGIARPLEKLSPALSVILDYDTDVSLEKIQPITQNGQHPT

D(2) dopamine receptor = D(2) dopamine receptor (Homo sapiens, UniProt P14416); assay: Displacement of [3H]N-methylspiperone from human recombinant dopamine D2 receptor expressed in stable fibroblast after 90 mins by scintillation counting method
D(3) dopamine receptor = D(3) dopamine receptor (Homo sapiens, UniProt P35462); assay: Displacement of [3H]N-methylspiperone from human recombinant dopamine D3 receptor expressed in HEKT cell membrane after 90 mins by scintillation counting method; assay type: cell membranes
D(4) dopamine receptor = D(4) dopamine receptor (Homo sapiens, UniProt P21917); assay: Displacement of [3H]N-methylspiperone from human recombinant dopamine D4 receptor after 90 mins by scintillation counting method
[8] = biological target: Sodium-dependent noradrenaline transporter (Homo sapiens, UniProt P23975); assay: Displacement of [3H]Nisoxetine from human norepinephrine transporter stably expressed in HEK293 cells after 30 mins by neurotransmitter transporter uptake assay; assay type: cell-based
Sequence of Sodium-dependent noradrenaline transporter (P23975 whole entry): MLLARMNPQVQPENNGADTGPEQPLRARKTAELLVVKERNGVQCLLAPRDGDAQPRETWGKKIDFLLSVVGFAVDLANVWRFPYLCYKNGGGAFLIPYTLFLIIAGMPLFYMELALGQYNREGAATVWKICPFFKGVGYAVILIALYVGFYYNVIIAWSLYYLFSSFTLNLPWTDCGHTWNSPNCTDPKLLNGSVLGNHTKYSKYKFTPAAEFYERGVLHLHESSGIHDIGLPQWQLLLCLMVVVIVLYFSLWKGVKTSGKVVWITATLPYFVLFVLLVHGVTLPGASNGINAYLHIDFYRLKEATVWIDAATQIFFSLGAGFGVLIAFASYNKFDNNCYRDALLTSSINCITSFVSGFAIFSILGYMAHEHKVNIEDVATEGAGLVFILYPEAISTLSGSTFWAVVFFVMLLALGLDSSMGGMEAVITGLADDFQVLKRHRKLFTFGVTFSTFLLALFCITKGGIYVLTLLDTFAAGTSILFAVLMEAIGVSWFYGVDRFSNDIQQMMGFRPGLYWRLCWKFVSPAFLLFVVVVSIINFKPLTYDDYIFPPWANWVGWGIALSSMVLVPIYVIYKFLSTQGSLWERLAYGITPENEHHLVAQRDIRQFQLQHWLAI

[9] = biological target: Sodium-dependent serotonin transporter (Homo sapiens, UniProt P31645); assay: Displacement of [3H]Citalopram from human serotonin transporter transporter stably expressed in HEK293 cells after 30 mins by neurotransmitter transporter uptake assay; assay type: cell-based
Sequence of Sodium-dependent serotonin transporter (P31645 whole entry): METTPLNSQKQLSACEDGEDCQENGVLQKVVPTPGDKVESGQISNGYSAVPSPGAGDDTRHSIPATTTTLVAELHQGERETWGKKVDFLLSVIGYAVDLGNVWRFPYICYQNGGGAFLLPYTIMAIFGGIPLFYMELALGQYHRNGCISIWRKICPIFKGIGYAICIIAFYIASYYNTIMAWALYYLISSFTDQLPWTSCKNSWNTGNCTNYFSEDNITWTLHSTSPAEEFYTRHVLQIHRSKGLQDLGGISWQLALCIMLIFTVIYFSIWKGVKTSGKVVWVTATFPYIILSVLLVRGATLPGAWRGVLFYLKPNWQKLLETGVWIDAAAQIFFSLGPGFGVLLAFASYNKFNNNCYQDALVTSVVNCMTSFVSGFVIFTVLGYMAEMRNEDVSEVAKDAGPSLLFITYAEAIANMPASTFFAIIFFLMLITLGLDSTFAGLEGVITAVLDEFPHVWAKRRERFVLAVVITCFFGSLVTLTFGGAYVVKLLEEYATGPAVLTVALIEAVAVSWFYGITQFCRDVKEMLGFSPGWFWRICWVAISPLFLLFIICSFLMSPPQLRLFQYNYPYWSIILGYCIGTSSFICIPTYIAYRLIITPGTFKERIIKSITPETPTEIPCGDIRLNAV

[10] = Displacement of [3H]Pentazocine from Guinea pig sigma 1 receptor after 90 mins by scintillation counting method; set-up: species or system Cavia porcellus
[11] = biological target: 5-hydroxytryptamine receptor 1B (Homo sapiens) (UniProt P28222); assay: Displacement of [3H]5-CT from human recombinant 5-HT1B receptor stably expressed in HEK cell membrane after 90 mins by scintillation counting method; assay type: cell membranes; details: HEK293
[12] = biological target: 5-hydroxytryptamine receptor 3A (Homo sapiens) (UniProt P46098); assay: Displacement of [3H]GR65630 from human recombinant 5-HT3 receptor expressed in HEKT cell membrane after 90 mins by scintillation counting method; assay type: cell membranes
[13] = biological target: Beta-2 adrenergic receptor (Homo sapiens) (UniProt P07550); assay: Displacement of [3H]CGP12177 from human recombinant beta 2 receptor expressed in HEK Flp-In cells after 90 mins by scintillation counting method; assay type: cell-based; details: HEK293
Sequence of Beta-2 adrenergic receptor (Homo sapiens) (P07550 whole entry, looked up): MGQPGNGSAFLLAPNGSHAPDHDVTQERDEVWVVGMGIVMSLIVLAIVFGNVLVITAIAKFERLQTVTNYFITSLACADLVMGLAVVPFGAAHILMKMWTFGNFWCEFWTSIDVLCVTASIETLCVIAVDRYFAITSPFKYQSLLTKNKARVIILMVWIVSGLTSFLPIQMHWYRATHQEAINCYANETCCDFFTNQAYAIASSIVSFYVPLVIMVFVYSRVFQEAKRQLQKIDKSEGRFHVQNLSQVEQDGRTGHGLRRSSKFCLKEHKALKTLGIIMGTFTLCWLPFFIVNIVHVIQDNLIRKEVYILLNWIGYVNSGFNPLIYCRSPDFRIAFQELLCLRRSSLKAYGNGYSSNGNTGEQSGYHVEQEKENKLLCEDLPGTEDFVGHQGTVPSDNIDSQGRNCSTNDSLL

[14] = biological target: Beta-3 adrenergic receptor (Homo sapiens) (UniProt P13945); assay: Displacement of [3H]CGP12177 from human recombinant beta 3 receptor expressed in HEK Flp-In cells after 90 mins by scintillation counting method; assay type: cell-based; details: HEK293
[15] = biological target: Muscarinic acetylcholine receptor M2 (Homo sapiens) (UniProt P08172); assay: Displacement of [3H]QNB from human Muscarinic acetylcholine M2 receptor stably expressed in CHO cell after 90 mins by scintillation counting method; assay type: cell-based
Sequence of Muscarinic acetylcholine receptor M2 (Homo sapiens) (P08172 whole entry): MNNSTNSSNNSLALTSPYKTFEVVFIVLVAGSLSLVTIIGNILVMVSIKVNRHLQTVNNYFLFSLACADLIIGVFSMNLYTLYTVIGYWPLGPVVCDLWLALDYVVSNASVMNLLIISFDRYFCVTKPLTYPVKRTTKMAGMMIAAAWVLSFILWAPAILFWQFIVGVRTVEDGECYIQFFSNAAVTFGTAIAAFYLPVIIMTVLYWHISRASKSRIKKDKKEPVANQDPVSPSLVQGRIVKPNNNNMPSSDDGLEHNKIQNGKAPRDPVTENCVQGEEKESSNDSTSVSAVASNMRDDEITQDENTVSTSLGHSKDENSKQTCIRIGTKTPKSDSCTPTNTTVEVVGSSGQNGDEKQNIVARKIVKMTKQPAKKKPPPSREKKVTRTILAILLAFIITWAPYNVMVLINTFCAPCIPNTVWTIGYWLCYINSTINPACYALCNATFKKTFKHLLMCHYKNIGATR

[16] = biological target: Muscarinic acetylcholine receptor M2 (Homo sapiens) (UniProt P08172); assay: Displacement of [3H]NMS from human Muscarinic acetylcholine M2 receptor stably expressed in CHO cell after 90 mins by scintillation counting method; assay type: cell-based
[17] = biological target: Muscarinic acetylcholine receptor M3 (Homo sapiens) (UniProt P20309); assay: Displacement of [3H]QNB from human Muscarinic acetylcholine M3 receptor stably expressed in CHO cell after 90 mins by scintillation counting method; assay type: cell-based
[18] = biological target: Muscarinic acetylcholine receptor M4 (Homo sapiens) (UniProt P08173); assay: Displacement of [3H]QNB from human Muscarinic acetylcholine M4 receptor stably expressed in CHO cell after 90 mins by scintillation counting method; assay type: cell-based
Sequence of Muscarinic acetylcholine receptor M4 (Homo sapiens) (P08173 whole entry): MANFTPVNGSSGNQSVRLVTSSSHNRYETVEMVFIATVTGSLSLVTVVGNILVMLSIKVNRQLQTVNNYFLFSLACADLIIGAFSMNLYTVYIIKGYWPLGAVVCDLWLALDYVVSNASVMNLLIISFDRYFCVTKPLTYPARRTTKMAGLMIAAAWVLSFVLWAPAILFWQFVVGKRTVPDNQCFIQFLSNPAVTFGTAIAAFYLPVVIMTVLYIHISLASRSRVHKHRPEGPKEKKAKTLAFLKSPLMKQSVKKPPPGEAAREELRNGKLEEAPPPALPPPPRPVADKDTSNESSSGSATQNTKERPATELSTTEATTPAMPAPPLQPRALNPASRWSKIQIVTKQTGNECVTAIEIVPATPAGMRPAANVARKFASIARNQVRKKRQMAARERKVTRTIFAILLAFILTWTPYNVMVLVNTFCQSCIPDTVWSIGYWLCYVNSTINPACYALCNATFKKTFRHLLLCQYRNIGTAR

[19] = biological target: Muscarinic acetylcholine receptor M4 (Homo sapiens) (UniProt P08173); assay: Displacement of [3H]NMS from human Muscarinic acetylcholine M4 receptor stably expressed in CHO cell after 90 mins by scintillation counting method; assay type: cell-based
[20] = biological target: Muscarinic acetylcholine receptor M5 (Homo sapiens) (UniProt P08912); assay: Displacement of [3H]NMS from human Muscarinic acetylcholine M5 receptor stably expressed in CHO cell after 90 mins by scintillation counting method; assay type: cell-based
[21] = biological target: T1, 5-hydroxytryptamine receptor 2A; assay: Antagonist activity at human recombinant 5-HT2A receptor expressed in Flp-In HEK cells in the presence of agonist preincubated for 10 mins by FLIPR based calcium mobilization assay; assay type: functional, cell-based, HEK293
[22] = biological target: T2, 5-hydroxytryptamine receptor 2B; assay: Agonist activity at human recombinant 5-HT2B receptor expressed in Flp-In HEK cells preincubated for 10 mins by FLIPR based calcium mobilization assay; assay type: functional, cell-based; details: HEK293
[23] = biological target: T1, 5-hydroxytryptamine receptor 2A; assay: Agonist activity at human recombinant 5-HT2A receptor expressed in Flp-In HEK cells preincubated for 10 mins by FLIPR based calcium mobilization assay; assay type: functional, cell-based; details: HEK293
[24] = biological target: 5-hydroxytryptamine receptor 6 (Homo sapiens) (UniProt P50406); assay: Displacement of [3H]LSD from human recombinant 5-HT6 receptor stably expressed in HEK cell membrane by scintillation counting method; assay type: cell membranes; details: HEK293

Ki [1]: 1890 nM
Ki [2]: 29 nM
Ki [3]: 102 nM
Ki [4]: 333 nM
Ki [5]: 165 nM
Ki [6]: 26 nM
Ki [7]: 399 nM
Ki (D(1A) dopamine receptor): 1680 nM
Ki (D(2) dopamine receptor): 1730 nM
Ki (D(3) dopamine receptor): 498 nM
Ki (D(4) dopamine receptor): 853 nM
Ki [8]: 11 nM
Ki [9]: 1000 nM
Ki [10]: 176 nM
Activity [11]: inactive
Activity [12]: inactive
Activity [13]: inactive
Activity [14]: inactive
Activity [15]: inactive
Activity [16]: inactive
Activity [17]: inactive
Activity [18]: inactive
Activity [19]: inactive
Activity [20]: inactive
IC50 [21]: 5010 nM
Activity [22]: inactive
Activity [23]: inactive
Activity [24]: inactive
SMILES: COc1ccc(CCN(CCCc2ccccc2)CCc2ccc3c(c2)OCO3)cc1OC
Ratio Ki (HEK293): 15
